Literature values, collected in US10398705B2, “Pharmaceutical tablet formulation for the veterinary medical sector, method of production and use thereof” (BOEHRINGER INGELHEIM VETMEDICA GMBH, priority 2012, dated 2019).

Conditions: known property; background description

| solubility | SMILES |
| --- | --- |
| well water-soluble | CCOC(=O)[C@H](CCc1ccccc1)N[C@H]1CCc2ccccc2N(CC(=O)O)C1=O (relative stereo) [benazepril, [S—(R*,R*J]-3-[[1-(ethoxycarbonyl)-3-phenylpropyl]amino]-2,3,4,5-tetrahydro-2-oxo-1H-1-benzazepin-1-acetic acid] |
| poor and pH-dependent solubility | COc1ccc(-c2nc3ccc(C4=NNC(=O)CC4C)cc3[nH]2)cc1 (racemic) [pimobendan, (RS)-6-[2-(4-methoxyphenyl)-1H-benzimidazol-5-yl]-5-methyl-4,5-dihydropyridazin-3(2H)-one] |
